Data as given in patent publication US7915199B1, “Herbicidal composition” (Syngenta Crop Protection, Inc., priority 1999, dated 2011).

SMILES	melting point [°C]
CCOC(=O)Oc1c(-c2c(CC)cc(C)cc2CC)c(=O)n2n1CCOCC2	114 to 116
Cc1cc(C)c(-c2c(OC(=O)C(C)(C)C)n3n(c2=O)CCOCC3)c(C(C)C)c1	148 to 151
COc1cc(C)cc(Br)c1-c1c(O)n2n(c1=O)CCOCC2	217 to 219
COc1cc(C)cc(Br)c1-c1c(OC(=O)C(C)(C)C)n2n(c1=O)CCOCC2	173 to 175

Results, then the compound that gave them:

melting point [°C]	SMILES
182 to 185	CCc1cc(C)cc(C)c1-c1c(O)n2n(c1=O)CCOCC2
110 to 113	CCc1cc(C)cc(C)c1-c1c(OC(=O)C(C)(C)C)n2n(c1=O)CCOCC2
214 to 216	Cc1cc(C)c(-c2c(O)n3n(c2=O)CCOCC3)c(C(C)C)c1
